Measured values reported in US10898537B2, “Transdermal formulations for delivery of capsaicinoids” (DELIVRA INC., priority 2015, dated 2021).

Test: PAMPA assay, flux of capsaicin and osthole from buffer solutions with penetration enhancers (Experiments 1 and 2)
Format: in vitro ADME
Protocol: A. Preparation of Standards:
1 mg/mL stock solutions of polygodial, tetrahydropiperine (Cosmoperine™), osthole, dimethylisosorbide (DMI), Tazmanian Mountain Pepper (TMP), capsaicin and warfarin were prepared in methanol and stored at −20 ° C.
Prisma buffer preparation: Added 1.25 mL of Prisma™ HT buffer to 48.75 mL distilled water. Adjusted to pH 7.0 by adding 0.5 M NaOH dropwise.
50 μg/mL solutions of capsaicin, warfarin and osthole were prepared by adding 50 μL of the 1 mg/mL solutions to 950 μL of MeOH:H2O (50:50).
Donor Well Solutions: Experiment 1—Polygodial, Osthole and Capsaicin with DMI and THP
Preparation of Capsaicin Solutions:
5 μg/mL solution of capsaicin was prepared in Prisma™ buffer solution by adding 5 μL of 1 mg/mL solution of capsaicin to 0.995 mL Prisma™ buffer.
5 μg/mL of capsaicin+5 μg/mL solution of DMI was prepared in Prisma™ buffer solution by adding 5 μL of 1 mg/mL of DMI and 5 μL of 1 mg/mL of capsaicin solution to 0.990 mL Prisma™ buffer.
5 μg/mL of capsaicin+5 μg/mL solution of THP was prepared in Prisma™ buffer solution by adding 5 μL of 1 mg/mL of THP and 5 μL of 1 mg/mL of capsaicin solution to 0.990 mL Prisma™ buffer.
Preparation of Osthole Solutions:
5 μg/mL solution of osthole was prepared in Prisma™ buffer solution by adding 5 μL of 1 mg/mL solution of osthole to 0.995 mL Prisma™ buffer.
5 μg/mL of osthole+5 μg/mL solution of DMI was prepared in Prisma™ buffer solution by adding 5 μL of 1 mg/mL of DMI and 5 μL of 1 mg/mL of osthole solution to 0.990 mL Prisma™ buffer.
5 μg/mL of osthole+5 μg/mL solution of THP was prepared in Prisma™ buffer solution by adding 5 μL of 1 mg/mL of THP and 5 μL of 1 mg/mL of osthole solution to 0.990 mL Prisma™ buffer.
Donor Well Solutions: Experiment 2—Osthole and Capsaicin with Polygodial, TMP and THP
5 μg/mL solution of capsaicin was prepared in Prisma™ buffer solution by adding 5 μL of 1 mg/mL solution of capsaicin to 0.995 mL Prisma™ buffer. (Solution A)
5 μg/mL of capsaicin+5 μg/mL solution of polygodial was prepared in Prisma™ buffer solution by adding 5 μL of 1 mg/mL of polygodial and 5 μL of 1 mg/mL of capsaicin solution to 0.990 mL Prisma™ buffer. (Solution B)
5 μg/mL of capsaicin+5 μg/mL solution of TMP was prepared in Prisma™ buffer solution by adding 5 μL of 1 mg/mL of TMP and 5 μL of 1 mg/mL of capsaicin solution to 0.990 mL Prisma™ buffer. (Solution C)
5 μg/mL of capsaicin+5 μg/mL TMP+5 μg/mL solution of tetrahydropiperine was prepared in Prisma™ buffer solution by adding 5 μL of 1 mg/mL of TMP and 5 μL of 1 mg/mL tetrahydropiperine and 5 μL of 1 mg/mL of capsaicin solution to 0.985 mL Prisma™ buffer. (Solution D)
5 μg/mL of capsaicin+5 μg/mL solution of tetrahydropiperine was prepared in Prisma™ buffer solution by adding 5 μL of 1 mg/mL of tetrahydropiperine and 5 μL of 1 mg/mL of capsaicin solution to 0.990 mL Prisma™ buffer. (Solution E)
5 μg/mL solution of osthole was prepared in Prisma™ buffer solution by adding 5 μL of 1 mg/mL solution of osthole to 0.995 mL Prisma™ buffer. (Solution F)
5 μg/mL of osthole+5 μg/mL solution of polygodial was prepared in Prisma™ buffer solution by adding 5 μL of 1 mg/mL of polygodial and 5 μL of 1 mg/mL of osthole solution to 0.990 mL Prisma™ buffer. (Solution G)
5 μg/mL of osthole+5 μg/mL solution of TMP was prepared in Prisma™ buffer solution by adding 5 μL of 1 mg/mL of TMP and 5 μL of 1 mg/mL of osthole solution to 0.990 mL Prisma™ buffer. (Solution H)
5 μg/mL of osthole+5 μg/mL TMP+5 μg/mL solution of tetrahydropiperine was prepared in Prisma™ buffer solution by adding 5 μL of 1 mg/mL of TMP and 5 μL of 1 mg/mL tetrahydropiperine and 5 μL of 1 mg/mL of osthole solution to 0.985 mL Prisma™ buffer. (Solution I)
5 μg/mL of osthole+5 μg/mL solution of tetrahydropiperine was prepared in Prisma™ buffer solution by adding 5 μL of 1 mg/mL of tetrahydropiperine and 5 μL of 1 mg/mL of osthole solution to 0.990 mL Prisma™ buffer. (Solution J) […]

CO[C@H]1CO[C@H]2[C@@H]1OC[C@H]2OC [DMI, Dimethyl Isosorbide]
effect of penetration enhancer on capsaicin flux in the PAMPA system (Experiment 1, vs capsaicin alone over five hours): neither penetration enhancer demonstrated a statistically significant increase in capsaicin flux
effect of penetration enhancer on osthole flux in the PAMPA system (Experiment 1, vs osthole alone over five hours): No observable enhancement

COc1ccc2ccc(=O)oc2c1CC=C(C)C [osthole]
concentration quantified in the acceptor well (alone, donor 5 μg/mL, 2.0 hours): 4 ng/mL
concentration quantified in the acceptor well (alone, donor 5 μg/mL, 2.5 hours): 89 ng/mL
concentration quantified in the acceptor well (alone, donor 5 μg/mL, 5.0 hours): 445 ng/mL
concentration quantified in the acceptor well (with equimass DMI (5 μg/mL), 2.0 hours): 95 ng/mL
concentration quantified in the acceptor well (with equimass DMI (5 μg/mL), 2.5 hours): 232 ng/mL
concentration quantified in the acceptor well (with equimass DMI (5 μg/mL), 5.0 hours): 510 ng/mL
concentration quantified in the acceptor well (with equimass THP (5 μg/mL), 2.0 hours): 261 ng/mL
concentration quantified in the acceptor well (with equimass THP (5 μg/mL), 2.5 hours): 324 ng/mL
concentration quantified in the acceptor well (with equimass THP (5 μg/mL), 5.0 hours): 549 ng/mL

CC1(C)CCC[C@]2(C)[C@@H](C=O)C(C=O)=CC[C@@H]12 [polygodial]
effect of natural penetration enhancer on capsaicin flux in the PAMPA system (PAMPA): appear to decreased the flux rate of capsaicin
